According to patent publication US12077503B2, “Substituted cyclic amides and their use as herbicides” (FMC CORPORATION, priority 2015, dated 2024):
Where two headings read alike, the source gives them in different places.

Experiments:
Assay in all cases: Test A postemergence
Format in all cases: in vivo
[1] = system: pigweed (Amaranthus retroflexus); settings: Amaranthus retroflexus, post-emergence, 240 h, Postemergence; for pest or weed control at 125 g/ha: 125 g ai/ha; for pest or weed control at 500 g/ha: 500 g ai/ha, visual injury, 0 to 100 scale (0 no effect, 100 complete control), approx. 10 d
How it was run: (§1)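 Visual injury, scored on a 0–100 scale relative to untreated controls, was recorded about 10 d after application. Treatments were a preemergence soil spray over planted seeds or a postemergence spray on plants at the one- to two-leaf stage, 2 to 10 cm tall, all in loam soil–sand blend in the greenhouse.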

[2] = system: wheat (Triticum aestivum); settings: Triticum aestivum, post-emergence, 240 h, Postemergence; for plant injury at 125 g/ha: 125 g ai/ha; for plant injury at 500 g/ha: 500 g ai/ha, visual injury, 0 to 100 scale (0 no effect, 100 complete control), approx. 10 d
How it was run: as §1

corn (Zea mays) = settings: Zea mays, post-emergence, 240 h, Postemergence; for plant injury at 125 g/ha / Corn plant response rating (crop injury, 0 = no effect, 100 = complete kill) at 125 g/ha: 125 g ai/ha; for plant injury at 125 g/ha: visual rating about 10 d after treatment, read-out: Corn plant response rating (0 to 100 scale); for Corn plant response rating (crop injury, 0 = no effect, 100 = complete kill) at 500 g/ha: 500 g ai/ha, visual injury, 0 to 100 scale (0 no effect, 100 complete control), approx. 10 d; for Corn plant response rating (crop injury, 0 = no effect, 100 = complete kill) at 125 g/ha: visual injury after approx. 10 d, 0 to 100 scale, 100 complete control
How it was run: as §1

[3] = system: barnyardgrass (Echinochloa crus-galli); settings: Echinochloa crus-galli, post-emergence, 240 h, Postemergence; for pest or weed control at 125 g/ha: 125 g ai/ha; for pest or weed control at 500 g/ha: 500 g ai/ha, visual injury, 0 to 100 scale (0 no effect, 100 complete control), approx. 10 d
How it was run: as §1

[4] = system: Galium (catchweed bedstraw, Galium aparine); settings: Galium, post-emergence, 240 h, Postemergence; for pest or weed control at 125 g/ha: 125 g ai/ha; for pest or weed control at 500 g/ha: 500 g ai/ha, visual injury, 0 to 100 scale (0 no effect, 100 complete control), approx. 10 d
How it was run: as §1

[5] = system: ragweed (common ragweed, Ambrosia elatior); settings: Ambrosia artemisiifolia, post-emergence, 240 h, Postemergence; for pest or weed control at 125 g/ha: 125 g ai/ha; for pest or weed control at 500 g/ha: 500 g ai/ha, visual injury, 0 to 100 scale (0 no effect, 100 complete control), approx. 10 d
How it was run: as §1

[6] = visual rating about 10 d after treatment, read-out: Pigweed plant response rating (0 to 100 scale)
[7] = read-out: Plant response rating, Pigweed
[8] = visual rating about 10 d after treatment, read-out: Wheat plant response rating (0 to 100 scale)
[9] = read-out: Plant response rating, Wheat
[10] = visual rating about 10 d after treatment, read-out: Barnyardgrass plant response rating (0 to 100 scale, 0 no effect, 100 complete control)
[11] = read-out: Plant response rating, Barnyardgrass
[12] = visual rating about 10 d after treatment, read-out: Galium plant response rating (0 to 100 scale)
[13] = read-out: Plant response rating, Galium
[14] = visual rating about 10 d after treatment, read-out: Ragweed plant response rating (0 to 100 scale)
[15] = read-out: Plant response rating, Ragweed
[16] = visual injury after approx. 10 d, 0 to 100 scale, 0 no effect, 100 complete control, read-out: Plant response rating, Pigweed
[17] = visual injury after approx. 10 d, 0 to 100 scale, 0 no effect, 100 complete control, read-out: Plant response rating, Wheat
[18] = visual injury after approx. 10 d, 0 to 100 scale, 0 no effect, 100 complete control, read-out: Plant response rating, Barnyardgrass
[19] = visual injury after approx. 10 d, 0 to 100 scale, 0 no effect, 100 complete control, read-out: Plant response rating, Galium
[20] = visual injury after approx. 10 d, 0 to 100 scale, 0 no effect, 100 complete control, read-out: Plant response rating, Ragweed

| Compound | pest or weed control at 125 g/ha [1, 6] [%] | pest or weed control at 500 g/ha [1, 7] [%] | plant injury at 125 g/ha [2, 8] [%] | plant injury at 500 g/ha [2, 9] [%] | plant injury at 125 g/ha (corn (Zea mays)) [%] | Corn plant response rating (crop injury, 0 = no effect, 100 = complete kill) at 500 g/ha (corn (Zea mays)) [%] | pest or weed control at 125 g/ha [3, 10] [%] | pest or weed control at 500 g/ha [3, 11] [%] | pest or weed control at 125 g/ha [4, 12] [%] | pest or weed control at 500 g/ha [4, 13] [%] | pest or weed control at 125 g/ha [5, 14] [%] | pest or weed control at 500 g/ha [5, 15] [%] | pest or weed control at 125 g/ha [1, 16] [%] | plant injury at 125 g/ha [2, 17] [%] | Corn plant response rating (crop injury, 0 = no effect, 100 = complete kill) at 125 g/ha (corn (Zea mays)) [%] | pest or weed control at 125 g/ha [3, 18] [%] | pest or weed control at 125 g/ha [4, 19] [%] | pest or weed control at 125 g/ha [5, 20] [%] |
| --- | --- | --- | --- | --- | --- | --- | --- | --- | --- | --- | --- | --- | --- | --- | --- | --- | --- | --- |
| CN1C[C@H](c2ccc(C(F)(F)F)cc2)[C@@H](C(=O)Nc2cccc(F)c2C#N)C1=O [Compound 1380] | 50 | 60 | 40 | 40 | 50 | 80 | 60 | 80 | 50 | 50 | 40 | 50 |  |  |  |  |  |  |
| CN1C[C@H](c2ccc(C(F)F)cc2)[C@@H](C(=O)Nc2cccc(F)c2F)C1=O [Compound 1383] | 40 | 70 | 60 | 80 | 80 | 90 | 100 | 100 | 60 | 60 | 50 | 60 |  |  |  |  |  |  |
| O=C1NC[C@H](c2cccc(C(F)(F)F)n2)[C@H]1C(=O)Nc1cccc(F)c1F [Compound 1385] |  | 0 |  | 20 |  | 20 |  | 90 |  | 50 |  | 0 | 0 | 0 | 0 | 80 | 30 | 0 |
| CSc1ccccc1NC(=O)[C@H]1C(=O)N(C)C[C@@H]1c1ccc(C(F)(F)F)cc1 [Compound 1391] |  | 90 |  | 60 |  | 80 |  | 100 |  | 70 |  | 60 | 70 | 30 | 0 | 90 | 70 | 20 |
| O=C1NC[C@H](c2cncc(C(F)(F)F)c2)[C@H]1C(=O)Nc1cccc(F)c1F [Compound 1394] |  | 20 |  | 60 |  | 70 |  | 90 |  | 60 |  | 20 | 0 | 0 | 40 | 90 | 50 | 0 |
